The results in this text go back to patent US10005767B2, “Compositions and methods for inhibition of the JAK pathway” (Rigel Pharmaceuticals, Inc., priority 2009, dated 2018).

The assay relates to human primary T-cells, IL-2 stimulated proliferation (JAK-1 and JAK-3 dependent; reported as JAK3 activity). Put plainly: Human primary T-cell proliferation stimulated by IL-2 (Example 3). The class given is cell-based. The following applies: tested under conditions described in Example 3 (IL-2 stimulated human primary T-cell proliferation), read-out: ability to inhibit JAK3 activity, IC50 range (Table V). Summed up: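 Peripheral-blood human T-cells pre-activated via TCR/CD28, IL-2-starved overnight, then cultured 72 h at 37 °C with compound in Yssel's medium containing IL-2 (80 U/mL in cell suspension). Proliferation read as viable-cell ATP by CellTiter-Glo luminescence; reduction versus control taken as JAK pathway inhibition.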

Read-outs that look alike come from different tables or passages of the source.

What is called IC50 is the midpoint of a concentration-inhibition curve. `Cc1cnc(Nc2cccc(S(C)(=O)=O)c2)nc1Nc1ccc2oc(=O)n(C(C)C)c2c1` [Compound I-9, N4-(3-isopropylbenzo[d]oxazol-2(3H)-on-5-yl)-N2-((3-methylsulfonyl)phenyl)-5-methylpyrimidine-2,4-diamine]: the IC50 is under 500 nM.
For `N#Cc1cccc(Nc2ncc(F)c(Nc3ccc4oc(=O)[nH]c4c3)n2)c1` [Compound I-44, N4-(benzo[d]oxazol-2(3H)-on-5-yl)-N2-(3-cyanophenyl)-5-fluoropyrimidine-2,4-diamine], under “Homo sapiens, T-cell”, the half-inhibitory concentration (IC50) was under 500 nM.
`Cc1cnc(Nc2cc(C)c(OC(C)(C)C(N)=O)c(C)c2)nc1Nc1ccc2oc(=O)[nH]c2c1` [Compound I-389, N2-[4-(1-aminocarbonyl-1-methyl)ethoxy-3,5-dimethyl]phenyl-5-methyl-N4-(2-oxo-2,3-dihydro-1,3-benzoxazol-5-yl)-2,4-pyrimidinediamine]: the 50% inhibitory concentration (IC50) was under 500 nM.
Still for that read-out and setting: under `Cc1cnc(Nc2cc(C)c(C)c(F)c2)nc1Nc1ccc2oc(=O)[nH]c2c1` [Compound I-537, N2-(3,4-dimethyl-5-fluoro)phenyl-5-methyl-N4-(2-oxo-2,3-dihydro-1,3-benzoxazol-5-yl)-2,4-pyrimidinediamine] stands under 500 nM; under `CNC(=O)COc1cccc(Nc2ncc(C)c(Nc3ccc4oc(=O)[nH]c4c3)n2)c1C` [Compound I-325, 5-methyl-N2-(2-methyl-3-methylaminocarbonylmethoxy)phenyl-N4-(2-oxo-2,3-dihydro-1,3-benzoxazol-5-yl)-2,4-pyrimidinediamine], 500 to 5000 nM.
On to `Cc1cnc(Nc2ccc(N3C[C@@H]4C[C@H]3CO4)nc2)nc1Nc1ccc2oc(=O)[nH]c2c1` [II-32, N4-(benzoxazolin-2-on-5-yl)-N2-[2-((1S,4S)-2-oxa-5-azabicyclo[2.2.1]heptan-5-yl)pyridin-5-yl]-5-methylpyrimidine-2,4-diamine], for which the IC50 (Homo sapiens, T-cell) is under 500 nM.
Turning to `Cc1cnc(Nc2ccc(N3CCN(C(=O)OC(F)(F)F)CC3)nc2)nc1Nc1ccc2oc(=O)[nH]c2c1` [II-8, N4-(benzo[d]oxazol-2(3H)-on-5-yl)-N2-(6-(4-trifluoromethoxycarbonylpiperazin-1-yl)pyridin-3-yl)-5-methylpyrimidine-2,4-diamine], the concentration for half-maximal inhibition (IC50) (Homo sapiens, T-cell) was under 500 nM.
Consider `Cc1cnc(Nc2cccc(S(N)(=O)=O)c2)nc1Nc1ccc2c(c1)n(C)c(=O)n2C` [Compound I-34, N4-(1,3-dimethylbenzimidazolin-2-on-5-yl)-N2-((3-aminosulfonyl)phenyl)-5-methylpyrimidine-2,4-diamine], for which the 50% inhibitory concentration (IC50) was under 500 nM.
With `Cc1cnc(Nc2ccc(C(=O)NC3CCC3)nc2)nc1Nc1ccc2oc(=O)[nH]c2c1` [II-151, 5-[5-Methyl-4-(2-oxo-2,3-dihydro-benzooxazol-5-ylamino)-pyrimidin-2-ylamino]-pyridine-2-carboxylic acid cyclobutylamide], the half-maximal inhibitory concentration (IC50) (Homo sapiens, T-cell) was under 500 nM.
Consider `Cc1cc(Nc2ncc(C)c(Nc3ccc4oc(=O)[nH]c4c3)n2)ccc1C(C)C` [Compound I-166, 5-[2-(4-Isopropyl-3-methyl-phenylamino)-5-methyl-pyrimidin-4-ylamino]-3H-benzooxazol-2-one], for which the IC50 (Homo sapiens, T-cell) was under 500 nM.
For `Cc1cnc(Nc2ccc(NC(=O)c3ccccc3)cc2)nc1Nc1ccc2oc(=O)[nH]c2c1` [Compound I-308, 5-methyl-N4-(2-oxo-2,3-dihydro-1,3-benzoxazol-5-yl)-N2-(4-phenylcarbonylamino)phenyl-2,4-pyrimidinediamine], the half-inhibitory concentration (IC50) was under 500 nM.
Take `Cc1cnc(Nc2cc(C)c(F)c(C)c2)nc1Nc1cc(C)c2oc(=O)[nH]c2c1` [Compound I-476, 5-(2-(4-fluoro-3,5-dimethylphenylamino)-5-methylpyrimidin-4-ylamino)-7-methylbenzo[d]oxazol-2(3H)-one]: the IC50 (Homo sapiens, T-cell) was over 10000 nM.
The same measure, in the same setting: under `CCOc1ccc(Nc2ncc(C)c(Nc3ccc4oc(=O)[nH]c4c3)n2)cc1Cl` [Compound I-194, 5-[2-(3-Chloro-4-ethoxy-phenylamino)-5-methyl-pyrimidin-4-ylamino]-3H-benzooxazol-2-one] stands under 500 nM; under `Cc1cnc(Nc2ccc(C(C)N3CCC3)cc2)nc1Nc1ccc2oc(=O)[nH]c2c1` (centres unmarked) [Compound I-201, 5-(2-(4-(1-(azetidin-1-yl)ethyl)phenylamino)-5-methylpyrimidin-4-ylamino)benzo[d]oxazol-2(3H)-one], under 500 nM.
On to `Cc1cnc(Nc2ccc(OCC3CCCCC3)c(C(F)(F)F)c2)nc1Nc1ccc2oc(=O)[nH]c2c1` [Compound I-179, 5-[2-(4-Cyclohexylmethoxy-3-trifluoromethyl-phenylamino)-5-methyl-pyrimidin-4-ylamino]-3H-benzooxazol-2-one], for which the IC50 (Homo sapiens, T-cell) was over 10000 nM.
Same read-out and setting: under `Cc1cnc(Nc2ccc3c(c2)N(C)C(=O)CCC3)nc1Nc1ccc2oc(=O)[nH]c2c1` [IV-30, 5-(5-methyl-2-(1-methyl-2-oxo-2,3,4,5-tetrahydro-1H-benzo[b]azepin-8-ylamino)pyrimidin-4-ylamino)benzo[d]oxazol-2(3H)-one] stands under 500 nM; under `Cc1cnc(Nc2cnc(C3CC4CCC(C3)N4CC3CC3)c(C)c2)nc1Nc1ccc2oc(=O)[nH]c2c1` (centres unmarked) [II-67, 5-(2-(6-(8-(cyclopropylmethyl)-8-aza-bicyclo[3.2.1]octan-3-yl)-5-methylpyridin-3-ylamino)-5-methylpyrimidin-4-ylamino)benzo[d]oxazol-2(3H)-one], under 500 nM.
Same read-out and setting: under `CC(=O)c1cccc(Nc2ncc(C)c(Nc3ccc4oc(=O)[nH]c4c3)n2)c1` [Compound I-130, 5-[2-(3-Acetyl-phenylamino)-5-methyl-pyrimidin-4-ylamino]-3H-benzooxazol-2-one] stands under 500 nM.
For the molecule `Cc1cnc(Nc2ccc(N3CCOCC3)nc2)nc1Nc1ccc2oc(=O)[nH]c2c1` [II-17, N4-(benzo[d]oxazol-2(3H)-on-5-yl)-N2-((2-morpholinyl)pyridin-5-yl)-5-methylpyrimidine-2,4-diamine], the half-maximal inhibitory concentration (IC50) was under 500 nM.
On to `Cc1cnc(Nc2ccc(Br)c(C(F)(F)F)c2)nc1Nc1ccc2oc(=O)[nH]c2c1` [Compound I-188, 5-[2-(4-Bromo-3-trifluoromethyl-phenylamino)-5-methyl-pyrimidin-4-ylamino]-3H-benzooxazol-2-one], for which the concentration for half-maximal inhibition (IC50) (Homo sapiens, T-cell) was under 500 nM.
Still for that read-out and setting: under `COc1cc(Nc2ncc(C)c(Nc3ccc4oc(=O)[nH]c4c3)n2)ccc1Cl` [Compound I-181, 5-[2-(4-Chloro-3-methoxy-phenylamino)-5-methyl-pyrimidin-4-ylamino]-3H-benzooxazol-2-one] stands under 500 nM.
The same measure, in the same setting: under `Cc1cnc(Nc2ccc(OCC(C)C)cc2)nc1Nc1ccc2oc(=O)[nH]c2c1` [Compound I-196, 5-[2-(4-Isobutoxy-phenylamino)-5-methyl-pyrimidin-4-ylamino]-3H-benzooxazol-2-one] stands under 500 nM; under `Cc1cnc(Nc2ccc3c(c2)CNC3)nc1Nc1ccc2oc(=O)[nH]c2c1` [III-1, N4-(benzo[d]oxazol-2(3H)-on-5-yl)-N2-(isoindolin-5-yl)-5-methylpyrimidine-2,4-diamine], under 500 nM; under `Cc1cnc(Nc2cnc(N3C[C@@H]4C[C@H]3CN4C)c(C)c2)nc1Nc1ccc2oc(=O)[nH]c2c1` [II-28, N4-(benzoxazolin-2-on-5-yl)-N2-[3-methyl-2-((1S,4S)-5-methyl-2,5-diazabicyclo[2.2.1]heptan-2-yl)pyridin-5-yl]-5-methylpyrimidine-2,4-diamine], under 500 nM.
On the same count and under the same terms, under `CCCNC(C)c1cccc(Nc2ncc(C)c(Nc3ccc4oc(=O)[nH]c4c3)n2)c1` (centres unmarked) [Compound I-208, 5-(5-methyl-2-(3-(1-(propylamino)ethyl)phenylamino)pyrimidin-4-ylamino)benzo[d]oxazol-2(3H)-one] stands under 500 nM.
On to `O=c1[nH]c2ccc(Nc3nc(Nc4ccc(N5CCOCC5)nc4)ncc3F)cc2[nH]1` [II-19, N4-(benzimidazolin-2-on-5-yl)-N2-((2-morpholinyl)pyridin-5-yl)-5-fluoropyrimidine-2,4-diamine], for which the IC50 was under 500 nM.
For the molecule `Cc1cnc(Nc2ccc(Cl)cc2)nc1Nc1ccc2oc(=O)[nH]c2c1` [Compound I-172, 5-[2-(4-Chloro-phenylamino)-5-methyl-pyrimidin-4-ylamino]-3H-benzooxazol-2-one], the IC50 (Homo sapiens, T-cell) is under 500 nM.
As to `CSc1ccc(Nc2ncc(C)c(Nc3ccc4oc(=O)[nH]c4c3)n2)cc1C(F)(F)F` [Compound I-155, 5-[5-Methyl-2-(4-methylsulfanyl-3-trifluoromethyl-phenylamino)-pyrimidin-4-ylamino]-3H-benzooxazol-2-one], where the note is “Homo sapiens, T-cell”, the IC50 was under 500 nM.
Turning to `Cc1ccc(Nc2ncc(C)c(Nc3ccc4oc(=O)[nH]c4c3)n2)cc1OC(C)(C)C#N` [Compound I-397, N2-[3-(1-cyano-1-methyl)ethoxy-4-methyl]phenyl-5-methyl-N4-(2-oxo-2,3-dihydro-1,3-benzoxazol-5-yl)-2,4-pyrimidinediamine], the half-inhibitory concentration (IC50) is under 500 nM.
Still for that read-out and setting: under `Cc1cnc(Nc2ccc(F)c(NS(C)(=O)=O)c2)nc1Nc1ccc2oc(=O)n(C)c2c1` [Compound I-88, N2-((4-fluoro-3-methylsulfonylamino)phenyl)-N4-(3-methyl-2-oxo-2,3-dihydrobenzo[d]oxazol-5-yl)-5-methylpyrimidine-2,4-diamine] stands under 500 nM.
For the molecule `Cc1cnc(Nc2ccc(N3C[C@@H](C)NC[C@@H]3C)nc2)nc1Nc1ccc2oc(=O)[nH]c2c1` (relative stereo) [II-130, N2-[2-(trans-2,5-dimethylpiperazino)pyridin-5-yl]-5-methyl-N4-(2-oxo-2,3-dihydro-1,3-benzoxazol-5-yl)-2,4-pyrimidinediamine], under “Homo sapiens, T-cell”, the IC50 was under 500 nM.
Turning to `Cc1cnc(Nc2ccc(OC(F)(F)F)c(F)c2)nc1Nc1ccc2oc(=O)[nH]c2c1` [Compound I-376, N2-(3-fluoro-4-trifluoromethoxy)phenyl-5-methyl-N4-(2-oxo-2,3-dihydro-1,3-benzoxazol-5-yl)-2,4-pyrimidinediamine], the IC50 is under 500 nM.
